According to EP4786486A1, “PEPTIDES FOR TREATING CARDIAC DISEASES” (Universidad Complutense De Madrid, priority 2023, dated 2025):
Where no end group is shown, it is not given here.

Assays:
Format in all cases: cell-based
[1] = test system: human iPSC-derived cardiomyocytes; assay: INa density in hiPSC-CM infected with AAV9 encoding the peptide, patch-clamp; details: hiPSC-CM infected 48 hours with AAV9 encoding DECA-11; vs. Ad-td-Tomato infected cardiomyocytes; P<0.05
[2] = test system: human iPSC-derived cardiomyocytes; assay: IK1 density in hiPSC-CM infected with AAV9 encoding the peptide, patch-clamp; details: hiPSC-CM infected 48 hours with AAV9 encoding DECA-11; vs. Ad-td-Tomato infected cardiomyocytes; P<0.05
human Nav1.5 channels = assay: Density of INa by whole-cell patch-clamp in CHO cells co-transfected with the cDNA encoding the peptide; details: CHO cells expressing Nav1.5 plus cDNA of the peptide, vs cells transfected only with Nav1.5 channels
Description: To analyse the effect of the peptides designed in example 1 on INa and IK1, the cDNA that encodes SEQ ID NO: 3 or SEQ ID NO: 4, described in SEQ ID NO: 5 and 20, respectively, was cloned into a pcDNA3.1^(+)® vector (Invitrogen) for transfection of Chinese hamster ovary (CHO) cells that were in turn transfected with the cDNA that encodes the human Nav1.5 channels (SEQ ID NO: 21). The CHO cells were further co-transfected with the EBO-pcD leu 2 vector (0.5 µg), which encodes the expression of the CD8 surface antigen. The subsequent addition of anti-CD8 antibody, bonded to Dynabeads M450® microspheres, allowed the cells that had been transfected to be identified. […] The currents were recorded at 20-22°C using an Axopatch 200B amplifier, filtered at half the sampling frequency and stored in a computer for further analysis. […] The capacitive current artefacts generated after the application of pulses from 0 mV to +10 mV were recorded at 50 kHz (filtered at 10 kHz) to calculate the capacitance of the cell, the access resistance and the input impedance. […] INa was recorded by applying 50 ms pulses from a holding potential of -120 mV to potentials between -80 and +50 mV in 5 mV increments. […]

human Kir2.1 channels = assay: Density of IKir2.1 by whole-cell patch-clamp in CHO cells co-transfected with the cDNA encoding the peptide; details: CHO cells expressing Kir2.1 plus cDNA of the peptide (SEQ ID NO: 5), vs cells transfected only with Kir2.1 channels
Description: To do this, CHO cells were transfected with the cDNA that encodes the human cardiac channels (Kir2.1) that generate IK1 (Origene, USA) (SEQ ID NO: 22), co-transfecting cells, or not, with the cDNA described in SEQ ID NO: 5. […] The sampling frequency was 4 kHz and the data, filtered at a frequency of 2 kHz, were stored on hard disks for further analysis using the CLAMPFIT application of the pCLAMP software. The current (IKir2.1) was recorded by applying 250 ms pulses from -120 to +20 mV from a holding potential of -60 mV. The density of the same was obtained by normalising the amplitude of IKir2.1 at the end of the pulse by the capacitance of each cell (pA/pF). […] Like in example 2.1, each point represents the mean±SEM of "n" experiments obtained from at least 3 different CHO cell plates. One-way ANOVA followed by the Tukey test. * P<0.05 vs. cells transfected only with Kir2.1 channels.

[3] = test system: human minimal promoter of the KCNJ2 gene; assay: Luciferase assay in hEK-293 cells, minimal promoter of KCNJ2; details: hEK-293, co-transfected with cDNA SEQ ID NO: 5, 48 hours
Description: 48 hours after transfection, luciferase assays were performed using the LightSwitch Luciferase Assay reagent, also from Active Motif, and a Berthold luminometer. All assays were performed in triplicate and each point represents the mean of each technical triplicate.

Sequence	density of INa [1]	density of IK1 [2]	density of INa (human Nav1.5 channels)	density of IKir2.1 (human Kir2.1 channels)	effect on the minimal promoter of the human KCNJ2 gene [3]
RFTRESLAAIE (listed as Homo sapiens) [SEQ ID NO: 3, 11-amino acid peptide, amino acids 15-25 of human Nav1.5]	significantly increase	significantly increase	–	–	–
RFTRESLAAIE [DECA-11, RFTRESLAAIE]	–	–	significantly increase the density of INa	significantly increase the density of IKir2.1	protranscriptional effect
